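How tested: cells in 96-well plates exposed to compound for 48 hours at five concentrations. Here, GI50 denotes the concentration required for 50% inhibition of growth. TGI: concentration producing complete growth inhibition.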

The first test has as its system OVCAR-3 ovarian. The experiment in a line: NCI anticancer screen, dose series, 48 h.
Consider `O=c1cc(-c2ccccc2)oc2cc(OCCCOc3ccc4c(=O)cc(-c5ccccc5)oc4c3)ccc12`, for which the TGI is greater than 100 µM.

As for `COc1cc2c(c(OC)c1OC)-c1ccc(OC)c(=O)cc1C(NC(=O)c1ccc(N=[N+]=[N-])cc1)CC2` (centres undefined), the TGI turned out to be 0.0555 µM.

Consider `CC(C)=Cc1cc(C(=O)Nc2ccc(Cl)c(Cl)c2)nc(N)n1`, for which the TGI was greater than 100 µM.

Take `CCN1CCN(c2nc(C)cc(N(CCNc3ccnc4cc(Cl)ccc34)Cc3ccc4c(c3)OCO4)n2)CC1`: the GI50 is 2280 nM and the TGI was determined as 7.02 µM.

The compound `Cn1cnc([N+](=O)[O-])c1Sc1nc2ccccc2[nH]1` gave a TGI greater than 100 µM.

Consider `COc1ccc([C@H]2[C@@H](F)C(=O)N2c2cc(OC)c(OC)c(OC)c2)cc1F`, for which the GI50 is 46.5 nM and the TGI was determined as 0.492 µM.

`CCCCCCN(CCCCCC)C(=O)Cc1c2n(c3ccccc13)Cc1ccccc1-2` displayed a TGI greater than 100 µM.

Turning to `CCCCCCCCC/C=C1\CCC(CN2CCOCC2)C1=O` (centres undefined), the TGI was found to be 24.9 µM.

Turning to `CC(=O)OC1COC(n2ccc3cc(Br)c([N+](=O)[O-])cc32)C(OC(C)=O)C1OC(C)=O` (centres undefined), the TGI worked out at 65.6 µM.

`CCOC(=O)NC(=O)c1cn(CCCO)c(=O)[nH]c1=O` showed a TGI greater than 100 µM.

Consider `CN(C)c1nc(=Nc2ccc(N=c3nc(N(C)C)ss3)cc2)ss1`, for which the TGI is greater than 78.6 µM.

Take `CCc1cc(Cc2cc(CC)c(NC(=O)C(=O)Cc3ccccn3)c(CC)c2Cl)c(Cl)c(CC)c1NC(=O)C(=O)Cc1ccccn1`: the TGI is greater than 100 µM.

Take `C[Si](C)(C)C1(Sc2ccccc2)SCCCS1`: the TGI was greater than 100 µM.

Take `Cc1cc(-c2ccc3nc(C4CCOCC4)n(CCOC(F)(F)F)c3c2)cn(C)c1=O`: the TGI was found to be 3.94 µM.

In the case of `O=C(CSc1ccc(Cl)cc1)Nc1ccc(-c2nc3ccccc3s2)c(Cl)c1`, the GI50 was 2430 nM and the TGI worked out at 8.01 µM.

`O=S1(=O)OCCOS(=O)(=O)C1Br`: the TGI is greater than 100 µM.

Turning to `CCOC(=O)C(=C=C=C(c1ccccc1)c1ccccc1)C(=O)OCC`, the TGI stood at 31 µM.

On to `CC1=CC(O)(c2ccc(-c3ccccc3Cl)cc2)OC1=O` (centres undefined), for which the TGI was greater than 100 µM.

In the case of `CC(C)(C)OC(=O)N[C@H]1CC2(C=C(Cl)C(=O)C(Cl)=C2)OC1=O`, the TGI was determined as 28.1 µM.

Regarding `OCCCCCNCc1cc2cc3c(cc2c2cc(OCc4ccccc4)ccc12)OCO3`, the GI50 was 1680 nM and the TGI turned out to be 3.14 µM.

Regarding `C/C(=N\NC(=S)NC(CCC(=O)O)C(=O)O)c1ccccn1` (centres undefined), the TGI was greater than 100 µM.

For the compound `C#CC1(O)CCC2C3CCc4cc(Oc5nc(F)nc(-c6c7ccccc7c7sc8ccccc8n67)n5)ccc4C3CC[C@@]21C` (some centres undefined), the TGI is greater than 100 µM.

In turn, `Cc1ccc(NC(=O)c2cc3cc(N=Nc4ccccc4C(=O)O)ccc3oc2=O)cc1` returned a TGI of 74.2 µM.

`O=C(/C=C\c1ccc(Cl)c(Cl)c1)c1ccc(Cl)cc1Cl` came in with a TGI of 35.7 µM.

For the compound `CC(=O)/C(=C\c1cccc([N+](=O)[O-])c1)C(=O)Nc1ccccc1C`, the TGI was greater than 100 µM.

Regarding `CCN1c2ccccc2C(C(SC)S(=O)(=O)c2ccc(C)cc2)c2c1[nH]c(=O)n(C)c2=O` (centres undefined), the TGI is greater than 100 µM.

`COC(OC)C(C)CC(=O)N(C)C` (centres undefined) gave a TGI greater than 100 µM.

Another test has as its system CAKI-1 renal. The experiment in a line: NCI anticancer screen, dose series, 48 h.
In the case of `O=c1cc(-c2ccccc2)oc2cc(OCCCOc3ccc4c(=O)cc(-c5ccccc5)oc4c3)ccc12`, the TGI was greater than 100 µM.

As to `COc1cc2c(c(OC)c1OC)-c1ccc(OC)c(=O)cc1C(NC(=O)c1ccc(N=[N+]=[N-])cc1)CC2` (centres undefined), the TGI came to 0.243 µM.

The compound `Clc1ccc(C(c2ccc(Cl)cc2)c2ccccn2)cc1` had a TGI of 56.8 µM.

Compound `CC(C)=Cc1cc(C(=O)Nc2ccc(Cl)c(Cl)c2)nc(N)n1` yielded a TGI greater than 100 µM.

Compound `Cn1cnc([N+](=O)[O-])c1Sc1nc2ccccc2[nH]1` had a TGI of 17.2 µM.

On to `CCCCCCN(CCCCCC)C(=O)Cc1c2n(c3ccccc13)Cc1ccccc1-2`, for which the TGI was greater than 100 µM.

Compound `CCCCCCCCC/C=C1\CCC(CN2CCOCC2)C1=O` (centres undefined) yielded a TGI of 6.38 µM.

Take `CC(=O)OC1COC(n2ccc3cc(Br)c([N+](=O)[O-])cc32)C(OC(C)=O)C1OC(C)=O` (centres undefined): the TGI was greater than 100 µM.

For `CCOC(=O)NC(=O)c1cn(CCCO)c(=O)[nH]c1=O`, the TGI is greater than 100 µM.

In the case of `CN(C)c1nc(=Nc2ccc(N=c3nc(N(C)C)ss3)cc2)ss1`, the TGI is greater than 59.5 µM.

Turning to `CCc1cc(Cc2cc(CC)c(NC(=O)C(=O)Cc3ccccn3)c(CC)c2Cl)c(Cl)c(CC)c1NC(=O)C(=O)Cc1ccccn1`, the TGI was greater than 100 µM.

With `C[Si](C)(C)C1(Sc2ccccc2)SCCCS1`, the TGI was greater than 100 µM.

As for `O=C(CSc1ccc(Cl)cc1)Nc1ccc(-c2nc3ccccc3s2)c(Cl)c1`, the GI50 was 2530 nM and the TGI came out at 10.3 µM.

Compound `O=S1(=O)OCCOS(=O)(=O)C1Br` registered a TGI greater than 100 µM.

In turn, `CC1=CC(O)(c2ccc(-c3ccccc3Cl)cc2)OC1=O` (centres undefined) showed a TGI greater than 100 µM.

In turn, `CC(C)(C)OC(=O)N[C@H]1CC2(C=C(Cl)C(=O)C(Cl)=C2)OC1=O` yielded a TGI of 26.5 µM.

In the case of `OCCCCCNCc1cc2cc3c(cc2c2cc(OCc4ccccc4)ccc12)OCO3`, the GI50 was 1770 nM and the TGI was determined as 3.74 µM.

Consider `C#CC1(O)CCC2C3CCc4cc(Oc5nc(F)nc(-c6c7ccccc7c7sc8ccccc8n67)n5)ccc4C3CC[C@@]21C` (some centres undefined), for which the TGI was greater than 100 µM.

The compound `COc1ccc(S(=O)(=O)NNS(C)(=O)=O)cc1` displayed a TGI greater than 100 µM.

Compound `O=C(/C=C\c1ccc(Cl)c(Cl)c1)c1ccc(Cl)cc1Cl` yielded a TGI greater than 100 µM.

In turn, `CC(=O)/C(=C\c1cccc([N+](=O)[O-])c1)C(=O)Nc1ccccc1C` yielded a TGI greater than 100 µM.

`CCN1c2ccccc2C(C(SC)S(=O)(=O)c2ccc(C)cc2)c2c1[nH]c(=O)n(C)c2=O` (centres undefined) yielded a TGI greater than 100 µM.

The next test deals with NCI-H522 lung. Description: NCI anticancer screen, dose series, 48 h.
`O=c1cc(-c2ccccc2)oc2cc(OCCCOc3ccc4c(=O)cc(-c5ccccc5)oc4c3)ccc12` showed a TGI greater than 100 µM.

Compound `COc1cc2c(c(OC)c1OC)-c1ccc(OC)c(=O)cc1C(NC(=O)c1ccc(N=[N+]=[N-])cc1)CC2` (centres undefined) had a TGI of 0.0387 µM.

Turning to `Clc1ccc(C(c2ccc(Cl)cc2)c2ccccn2)cc1`, the TGI was 48.6 µM.

For the compound `CCN1CCN(c2nc(C)cc(N(CCNc3ccnc4cc(Cl)ccc34)Cc3ccc4c(c3)OCO4)n2)CC1`, the GI50 was 1950 nM and the TGI turned out to be 4.06 µM.

Regarding `COc1ccc([C@H]2[C@@H](F)C(=O)N2c2cc(OC)c(OC)c(OC)c2)cc1F`, the GI50 was 38.3 nM and the TGI is greater than 100 µM.

`CCCCCCN(CCCCCC)C(=O)Cc1c2n(c3ccccc13)Cc1ccccc1-2` came in with a TGI greater than 100 µM.

For the compound `CCCCCCCCC/C=C1\CCC(CN2CCOCC2)C1=O` (centres undefined), the TGI is 6.64 µM.
